Results taken from US5614548A, “Quaternary amine containing ether or ester lipid derivatives and therapeutic compositions” (priority 1994, dated 1997).
Like-named read-outs stand apart in the source and are kept apart here.

What was measured:
Protein Kinase C = Protein Kinase C activity (32P incorporation into histone); format: biochemical, human (HL-60 cells)
Method: PKC was prepared and assayed as described previously. See Daniel, L. W. et al., Biochem. Biophys. Res. Comm. 151, 291 (1988). In brief, HL-60 cells were grown in 75 milliliter flasks, harvested and washed with ice-cold normal saline. After centrifugation (600×g, 5 minutes, 4° Centigrade), the cell pellet was resuspended (20 mM Tris-HCl, pH 7.5, 2 mM EDTA, 10 mM EGTA, 50 mM 2-mercaptoethanol, 2 mM phenylmethylsulfonyl fluoride) and sonicated for 20 s with a stepped microprobe sonciator. Unbroken cells were removed by centrifugation as above and the supernatant centrifuged (65,000×g, 90 minutes, 4° Centigrade). The supernatant from this step (cytosol) was then fractionated on a 1×8 cm DEAE-Sephacel column after addition to sucrose to a final concentration of 10%. After equilibrating the column (20 mM Tris, pH 7.5, 0.2 mM EDTA, 0.2 mM EGTA, 50 mM 2-mercaptoethanol, 10% sucrose), the sample was loaded and unbound material was washed through with 40 milliliters of the equilibrating buffer. The PKC was eluted by a gradient from 0-0.5M NaCl in the buffer described above. Fractions of 1 milliliter were collected at 25 milliliters per hour and 0.05 milliliter aliquots assayed for PKC activity as described below. The fractions with the highest activity were pooled and used in further experiments.
The assays were done at pH 7.5 in a total volume of 0.25 milliliter and all tubes contained 25 mM Tris, 10 mM MgCl2, 40 μg per milliliter histone, 10 μM ATP (including 1 μCi of [gamma-^32 P]-ATP), 0.1 mM CaCl2, 20 μg per milliliter phosphatidylserine, 0.05 milliliter of the PKC preparation and 2.5 μM of oleoylacetylglycerol (OAG). Enzymatic activity was determined as the incorporation of ^32 P from [gamma-^32 P]-ATP) into histone in the presence of Ca^2+, phosphatidylserine, and OAG. Reactions were initiated by the addition of the enzyme preparation and halted after 20 minutes at 30° Centigrade by the addition of 0.05 milliliters of bovine serum albumin (10 milligrams per milliliter) and 1 milliliter 25% ice-cold trichloroacetic acid. The tubes were kept on ice and then filtered in a millipore vacuum box using Millipore® HA filters and washed with 25% trichloroacetic acid. The radioactivity bound to the filters was determined by scintillation spectrometry in 5 milliliters Budget Solve®. […] The analog to be tested was dissolved in ethanol, and added directly into the reaction mixture before the addition of PKC. As a control, 0.1% ethanol was included in the samples with the enzyme but with no inhibitor.

77 cells = assay: Cytostatic activity on 77 cells; format: cell-based, rat; details: for IC50: 77 cells, after controls doubled three times; for 77/KB: ratio of IC50 values ± standard error of the quotient
Method: (§1) All cells were grown in Eagle's minimum essential medium supplemented with 10% fetal bovine serum with the exception of HL-60 and K562-4 cells which were grown in RPMI 1640 medium supplemented with 10% fetal bovine serum. The KB and MH1 C1 cells, from a human nasopharyngeal carcinoma and rat hepatoma, respectively, were from American Type Culture Collection. The ChaGo cells, a human lung carcinoma, was generously provided by Dr. A. H. Tashjian. The human promyeloblastic leukemia cells, K562-4 were kindly supplied by Dr. Bismarck Lozzio. HL-60 cells, a human promyelocytic leukemia, and P388 cells, a mouse leukemia, were obtained from Dr. Y.-C. Cheng. The 77 cells were put into culture by us by excising the 7777, Morris hepatoma from a rat graciously supplied by the late Dr. H. P. Morris.
(§2) Cells were transferred or removed from monolayers for counting after a one or two minute incubation with 0.02% sodium ethylenediamine tetraacetate in phosphate-buffered saline to dislodge the cells. Flasks were seeded at a density of 1×10^3 cells per cm^2 or 2×10^4 per milliliter for suspension cultures. The HL-60 and K562-4 suspension cultures were used about 24 hours after seeding. The compounds to be tested were diluted to various concentrations and added to the monolayer cultures. All of the test compounds were dissolved in 10% dimethyl sulfoxide (DMSO) at concentrations that would give a final DMSO concentration of 0.1%. Control flasks contained 0.1% DMSO. Control cell replication was followed until approximately three doublings had occurred, and then all of the treated cells were counted.
(§3) The KB cells represented cells with low alkyl cleavage activity (less than the detectable level of 0.1-0.2 units per milligram protein by our assay procedure) and the 77 cells represented cells similar to normal cells with relatively high alkyl cleavage activity (1.6 units per milligram of protein). Our value for the cleavage activity of cultured 77 cells agrees well with the value of 1.4 units per milligram of protein reported by Soodsma et al, Cancer Res. 30, 309 (1970), for freshly excised 7777 Morris hepatoma tissue. In further confirmation of our assay procedure, we obtained a value of 12.6±4.1 units per milligram of protein in excised rat liver compared to 7.3 units per milligram of protein in rat liver measured by Soodsma et al.

KB cells = assay: Cytostatic activity on KB cells; format: cell-based; details: Homo sapiens, read-out: IC50 KB
Method: as §1, §2, §3

[1] = system: HL60 human leukemia cell line; assay: HL60 cell growth inhibition (trypan blue, 48 h); format: cell-based; details: Homo sapiens, HL-60, 48 h, HL60, 48 hours; read-out: ID50 (the source's name)
Method: A number of the compounds disclosed herein have been tested against the HL60 human leukemia cell line to assess their cytotoxic potential. These analogs were investigated in parallel with ET-18-OMe which was used as the reference compound. The methodologies used in this investigation were the same as described in A. Noseda, M. Berens, C. Piantadosi, and E. J. Modest, Lipids 22, 878-883, 1987. In brief, HL60 cells at a concentration of […] were incubated in wells with one milliliter medium with the experimental drug in parallel with the same concentration of cells with ET-18-OMe (standard) or EtOH (control). After 48 hours of incubation the cells were counted using the trypan blue dye exclusion technique to determine the effect of the drug on cell growth. The experimental drug and ET-18-OMe were tested at the same concentrations, e.g., 10, 5, 2.5 and 1.25 μM.

[2] = KB cells, after controls doubled three times

SMILES	Percent Protein Kinase C Activity Retained (Protein Kinase C; 1.25 μM)	Percent Protein Kinase C Activity Retained (Protein Kinase C; 2.5 μM)	Percent Protein Kinase C Activity Retained (Protein Kinase C; 5.0 μM)	Percent Protein Kinase C Activity Retained (Protein Kinase C; 10.0 μM)	Percent Protein Kinase C Activity Retained (Protein Kinase C; 20.0 μM)	Percent Protein Kinase C Activity Retained (Protein Kinase C; 40.0 μM)	IC50 (KB cells; [2])	further results
CCCCCCCCCCCCCCCCSCC(C[N+](C)(C)CCCO)OCC (stereo not shown) [C]	78%	64%	67%	60%	59%	37%	–	–
CCCCCCCCCCCCOCC[N+](C)(C)CCO.[I-] [III, 2-dodecyloxy-N,N-dimethyl-N-β-hydroxyethyl-1-ethyl ammonium iodide]	–	–	–	–	–	–	780 ± 30 nM	IC50 (77 cells): 4730 ± 870 nM; 77/KB (77 cells): 6.1 ± 1.15
COC(COc1cccc2ccccc12)C[N+](C)(C)CCO (stereo not shown) [E]	99%	99%	83%	89%	87%	90%	–	–
CCCCCCCCCCCCCCCCCC1OCC(C[N+](C)(C)CCCO)O1 (stereo not shown) [G]	44%	43%	26%	12%	9%	9%	–	–
CCCCCCCCCCCCCCCCOCC[N+](C)(C)CCCCO.[I-] [VII, 2-hexadecyloxy-N,N-dimethyl-N-delta-hydroxybutyl-1-ethyl ammonium iodide]	–	–	–	–	–	–	440 ± 110 nM	IC50 (77 cells): 2270 ± 930 nM; 77/KB (77 cells): 5.2 ± 2.50
CC1(C)OCC(C[N+](C)(C)CCO)O1 (stereo not shown) [F]	88%	84%	87%	88%	96%	87%	–	–
CCCCCCCCCCCCCCCCCC(=O)OCC[N+](C)(C)CCO [II, 2-octadecanoyloxy-N,N-dimethyl-N-β-hydroxyethyl-1-ethyl ammonium iodide]	–	–	–	–	–	–	16000 nM	–
CCCCCCCCCCCCCCCCOCCC[N+](C)(C)C [KLM 69, 3-hexadecyloxy-N,N,N-trimethyl-1-propyl ammonium bromide]	–	–	–	–	–	–	–	IC50 [1]: 1600 nM
CCCCCCCCCCCCCCCCSCC(C[N+](C)(C)C)OC (stereo not shown) [D]	112%	88%	81%	74%	54%	29%	–	–
CCCCCCCCCCCCCCCCOCC[N+](C)(C)CCO.[I-] [V, 2-hexadecyloxy-N,N-dimethyl-N-β-hydroxyethyl-1-ethyl ammonium iodide]	–	–	–	–	–	–	330 ± 120 nM	IC50 (77 cells): 1420 ± 500 nM; 77/KB (77 cells): 4.3 ± 2.15
CCCCCCCCCCCCCCOCC[N+](C)(C)CCO.[I-] [IV, 2-tetradecyloxy-N,N-dimethyl-N-β-hydroxyethyl-1-ethyl ammonium iodide]	–	–	–	–	–	–	320 ± 120 nM	IC50 (77 cells): 1530 ± 230 nM; 77/KB (77 cells): 4.8 ± 1.94
CCCCCCCCCCCCCCCCSCC(C[N+](C)(C)CCO)OC (stereo not shown) [A]	97%	90%	73%	60%	54%	42%	–	–
C[N+](C)(CCO)CCOc1ccccc1 [IX, 2-Phenoxy-N,N-dimethyl-N-β-hydroxyethyl-1-ethyl ammonium iodide]	–	–	–	–	–	–	–	IC50 (KB cells; KB): > 100000 nM
CCCCCCCCCCCCCCCCOCCC[n+]1ccccc1 [KLM 70, 1-(3-hexadecyloxypropyl) pyridium bromide]	–	–	–	–	–	–	–	IC50 [1]: 800 nM
CCCCCCCCCCCCCCCCOCC(C[N+](C)(C)CCO)OC (stereo not shown) [XII]	–	–	–	–	–	–	260 ± 50 nM	IC50 (77 cells): 1270 ± 410 nM; 77/KB (77 cells): 4.9 ± 1.84
CCCCCCCCCCCCCCCCCC1OCC(C[N+](C)(C)CCCO)O1 (racemic) [CJM 60, (±)-N-(2-heptadecyl-1,3-dioxolan-4-yl)methyl-N,N-dimethyl-gamma-hydroxypropyl ammonium bromide]	–	–	–	–	–	–	–	IC50 [1]: 6500 nM
CCCCCCCCCCCCCCCCOCC(C[N+]1(C)CCC(O)CC1)OCC (racemic) [CJM PIPER, (±)-1-methyl-1-(3-hexadecyloxy-2-ethoxypropyl)-4-hydroxy piperidinium iodide]	–	–	–	–	–	–	–	IC50 [1]: 2800 nM
CCCCCCCCCCCCCCCCCCSCC(C[N+](C)(C)CCCO)OC (racemic) [CJM 44, (±)-3-octadecylthio-2-methoxy-N,N-dimethyl-N-gamma-hydroxypropyl-1-propyl ammonium bromide]	–	–	–	–	–	–	–	IC50 [1]: 3400 nM
CCCCCCCCCCCCCCCCOCC(C[N+](C)(C)CCO)OC (stereo not shown) [H]	107%	95%	87%	64%	42%	29%	–	–
